Experiment [1] concerns the target T1, PARG (Homo sapiens (Human), UniProt Q86W56). Kind of experiment: PARG target engagement cellular assay (PAR polymer immunostaining after cisplatin). Type of experiment: cell-based. Conditions: HCC1806 cells treated with cisplatin, then compound titration for 1 h; PAR polymer antibody readout. On the procedure:
Example a. Inhibition of PARG Target Engagement Cellular Assay
The ability of the compounds of the Examples to inhibit PARG was determined as described below. After treating HCC1806 cells with cisplatin, followed by PARG inhibitor compound titration for 1 h, the cells were fixed in formaldehyde. The cells were permeabilized, blocked, and incubated with antibody against poly (ADP) ribose (PAR) polymer. The cells were then washed and incubated with IR 800 conjugated secondary antibody together with TO-PRO3 iodide nuclear stain. After washing, images of the cells were captured and analyzed on Odyssey CLx instrument and analyzed using LI-COR image studio software.

Experiment [2] concerns the target T1, PARG. In words: PARG TFMU assay (4-(trifluoromethyl)umbelliferone substrate). Type of experiment: biochemical. The note with it: PARG 250 pM or 2 nM, 10-point dose response. On the procedure:
Example C. Inhibition of PARG TEMU Assay
The ability of the compounds of the Examples to inhibit PARG activity in 4. (trifluoromethyl)umbelliferone (TFMU) assay was determined as described below. PARG inhibitors were added into 384 well plate for a 10-point dose response curve at 1:3 dilutions. TFMU PARG substrate and PARG (250 pM or 2 nM) were then added to the plate to initiate enzymatic reaction. After incubation with the reagent, […] was read. IC50 values were calculated using set control points for 100% inhibition as no enzyme and 0% inhibition 250 pM or 2 nM of PARG enzyme.

The record followed here is patent US20250346564A1 (ARase Therapeutics Inc., priority 2022, published 2025).

T1 sequence (Q86W56 whole entry): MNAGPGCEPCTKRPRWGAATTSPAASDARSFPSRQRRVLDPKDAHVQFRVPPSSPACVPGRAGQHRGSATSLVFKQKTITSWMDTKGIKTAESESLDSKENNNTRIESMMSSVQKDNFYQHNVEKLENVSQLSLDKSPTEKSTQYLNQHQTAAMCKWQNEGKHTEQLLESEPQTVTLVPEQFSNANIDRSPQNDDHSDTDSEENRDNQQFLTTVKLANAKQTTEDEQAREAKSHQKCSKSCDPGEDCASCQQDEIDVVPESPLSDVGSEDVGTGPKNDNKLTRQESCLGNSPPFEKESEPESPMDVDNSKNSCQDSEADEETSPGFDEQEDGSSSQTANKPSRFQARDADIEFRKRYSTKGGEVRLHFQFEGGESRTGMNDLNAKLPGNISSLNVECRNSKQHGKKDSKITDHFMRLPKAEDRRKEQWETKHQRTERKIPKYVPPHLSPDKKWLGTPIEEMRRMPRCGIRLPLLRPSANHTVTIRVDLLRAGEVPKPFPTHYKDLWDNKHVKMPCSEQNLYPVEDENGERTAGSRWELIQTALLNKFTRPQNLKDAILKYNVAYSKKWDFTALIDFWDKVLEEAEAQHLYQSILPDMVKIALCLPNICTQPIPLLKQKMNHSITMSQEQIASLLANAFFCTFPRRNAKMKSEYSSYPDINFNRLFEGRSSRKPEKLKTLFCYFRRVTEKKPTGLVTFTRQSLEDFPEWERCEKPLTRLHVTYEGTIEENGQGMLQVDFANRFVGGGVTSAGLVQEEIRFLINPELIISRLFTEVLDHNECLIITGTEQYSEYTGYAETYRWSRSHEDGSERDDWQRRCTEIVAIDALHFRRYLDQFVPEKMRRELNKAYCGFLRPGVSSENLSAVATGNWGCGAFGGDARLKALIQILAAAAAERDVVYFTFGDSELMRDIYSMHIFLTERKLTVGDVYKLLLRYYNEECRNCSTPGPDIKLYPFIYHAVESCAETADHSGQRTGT

A word on the IC50: it is the concentration at which inhibition is half-maximal. Higher therefore signals weaker potency in that assay. As to `CCn1c(=O)c2cc(S(=O)(=O)N[C@@]3(C)C[C@H]3CC#N)ccc2n(CC)c1=O` (racemic) [Example 16, N-((1SR,2SR)-2-(cyanomethyl)-1-methylcyclopropyl)-1,3-diethyl-2,4-dioxo-1,2,3,4-tetrahydroquinazoline-6-sulfonamide], the IC50 in experiment [1] was > 100 µM; in experiment [2] it was ≥ 5000 nM.

As to `CC[C@H]1C[C@@]1(C)NS(=O)(=O)c1ccc2c(c1)c(=O)n(CC)c(=O)n2CC` (single isomer, unassigned) [Example 13D], the IC50 in experiment [1] was > 100 µM; in experiment [2], ≥ 5000 nM. As to `CCn1c(=O)c2cc(S(=O)(=O)N[C@@]3(C)C[C@H]3CCO)ccc2n(CC)c1=O` (single isomer, unassigned) [Example 15A], the IC50 in experiment [1] is > 100 µM; in experiment [2] it was 500 to 5000 nM. For the compound `CCn1c(=O)c2cc(S(=O)(=O)N[C@@]3(C)CO[C@H]3C)ccc2n(CC)c1=O` (single isomer, unassigned) [Example 17A], the half-inhibitory concentration (IC50) in experiment [1] fell in the range of 10 to 100 µM; in experiment [2] it was 50 to 500 nM. The like results for `CCOC(=O)/C=C/Cn1c(=O)[nH]c2ccc(S(=O)(=O)NC34CC(C3)C4)cc2c1=O` [Example 1, ethyl (2E)-4-[6-({bicyclo[1.1.1]pentan-1-yl}sulfamoyl)-2,4-dioxo-1H-quinazolin-3-yl]but-2-enoate] were, in that order, > 100 µM and ≥ 5000 nM.

In the case of `O=C(O)/C=C/Cn1c(=O)[nH]c2ccc(S(=O)(=O)NC34CC(C3)C4)cc2c1=O` [Example 2, (2E)-4-[6-({bicyclo[1.1.1]pentan-1-yl}sulfamoyl)-2,4-dioxo-1H-quinazolin-3-yl]but-2-enoic Acid], the figures for the IC50 in experiment [1] and in experiment [2] were > 100 µM and ≥ 5000 nM, respectively. On to `NC(=O)/C=C/Cn1c(=O)[nH]c2ccc(S(=O)(=O)NC34CC(C3)C4)cc2c1=O` [Example 3, (2E)-4-[6-({bicyclo[1.1.1]pentan-1-yl}sulfamoyl)-2,4-dioxo-1H-quinazolin-3-yl]but-2-enamide], for which the IC50 in experiment [1] is > 100 µM; in experiment [2], 500 to 5000 nM. On to `CCn1c(=O)c2cc(S(=O)(=O)NC3(C)COC3)ccc2n(CC)c1=O` [Example 4, 1,3-diethyl-N-(3-methyloxetan-3-yl)-2,4-dioxoquinazoline-6-sulfonamide], for which the results for the half-maximal inhibitory concentration (IC50) in experiment [1] and in experiment [2] were 10 to 100 µM and 50 to 500 nM, respectively. With `CCn1c(=O)c2cc(S(=O)(=O)NC3(C)CSC3)ccc2n(CC)c1=O` [Example 5, 1,3-diethyl-N-(3-methylthietan-3-yl)-2,4-dioxoquinazoline-6-sulfonamide], the IC50 in experiment [1] is > 100 µM; in experiment [2] it was 500 to 5000 nM. On to `CCn1c(=O)c2cc(S(=O)(=O)NC3(C)CCOC3)ccc2n(CC)c1=O` (stereo not drawn) [Example 8, 1,3-diethyl-N-(3-methyloxolan-3-yl)-2,4-dioxoquinazoline-6-sulfonamide], for which the IC50 in experiment [1] was > 100 µM. On to `Cc1nnc(-n2ncc3c(N4CCN(C(=O)C(C)C)CC4)cc(S(=O)(=O)NC4(C)COC4)cc32)s1` [Example 45, 4-(4-isobutyrylpiperazin-1-yl)-1-(5-methyl-1,3,4-thiadiazol-2-yl)-N-(3-methyloxetan-3-yl)-1H-indazole-6-sulfonamide], for which, in experiment [2], the 50% inhibitory concentration (IC50) is < 50 nM.

With `CC(C)C(=O)N1CCN(c2cc(S(=O)(=O)NC3(C)COC3)cc3c2cnn3-c2nncs2)CC1` [Example 46, 4-(4-isobutyrylpiperazin-1-yl)-N-(3-methyloxetan-3-yl)-1-(1,3,4-thiadiazol-2-yl)-1H-indazole-6-sulfonamide], in experiment [2], the concentration for half-maximal inhibition (IC50) was < 50 nM. With `C=Cc1nnc(-n2ncc3c(N4CCN(C(=O)C(C)C)CC4)cc(S(=O)(=O)NC4(CF)COC4)cc32)s1` [Example 47, N-(3-(fluoromethyl)oxetan-3-yl)-4-(4-isobutyrylpiperazin-1-yl)-1-(5-vinyl-1,3,4-thiadiazol-2-yl)-1H-indazole-6-sulfonamide], the IC50 in experiment [2] is < 50 nM. As to `CN1CCN(c2cc(S(=O)(=O)NC3(C)COC3)cc3c2cnn3-c2nnc(C(F)F)s2)CC1` [Example 48, 1-(5-(difluoromethyl)-1,3,4-thiadiazol-2-yl)-N-(3-methyloxetan-3-yl)-4-(4-methylpiperazin-1-yl)-1H-indazole-6-sulfonamide], in experiment [2], the IC50 was in the range of 50 to 500 nM. In turn, `CCn1c(=O)c2cc(S(=O)(=O)NC3(C)CNC3)ccc2n(CC)c1=O` [Example 49, 1,3-diethyl-N-(3-methylazetidin-3-yl)-2,4-dioxo-1,2,3,4-tetrahydroquinazoline-6-sulfonamide] displayed an IC50 in experiment [2] of 500 to 5000 nM. The compound `N#CC1(NS(=O)(=O)c2cc(Cl)c3cnn(-c4nnc(C(F)F)s4)c3c2)COC1` [Example 63, 4-chloro-N-(3-cyanooxetan-3-yl)-1-(5-(difluoromethyl)-1,3,4-thiadiazol-2-yl)-1H-indazole-6-sulfonamide] showed an IC50 in experiment [2] of 500 to 5000 nM.

The compound `CC1(NS(=O)(=O)c2cc(Cl)c3cnn(-c4nnc(C(F)F)s4)c3c2)CC1CCO` (stereo not drawn) [Example 65, 4-chloro-1-(5-(difluoromethyl)-1,3,4-thiadiazol-2-yl)-N-(2-(2-hydroxyethyl)-1-methylcyclopropyl)-1H-indazole-6-sulfonamide] showed a half-maximal inhibitory concentration (IC50) in experiment [2] of 500 to 5000 nM. The same measure, in the same setting: the result for `CC1OCC1(C)NS(=O)(=O)c1cc(Cl)c2cnn(-c3nnc(C(F)F)s3)c2c1` (stereo not drawn) [Example 71, 4-chloro-1-(5-(difluoromethyl)-1,3,4-thiadiazol-2-yl)-N-(2,3-dimethyloxetan-3-yl)-1H-indazole-6-sulfonamide] reads 50 to 500 nM; that for `Cn1ncc2ccc(S(=O)(=O)NC3(C)COC3)cc21` [Example 72, 1-methyl-N-(3-methyloxetan-3-yl)-1H-indazole-6-sulfonamide], ≥ 5000 nM; that for `COc1cc(S(=O)(=O)NC2(C)COC2)cc2c1cnn2-c1nnc(C(F)F)s1` [Example 73, 1-(5-(difluoromethyl)-1,3,4-thiadiazol-2-yl)-4-methoxy-N-(3-methyloxetan-3-yl)-1H-indazole-6-sulfonamide], 50 to 500 nM. On the same count and under the same terms, the result for `CC1(NS(=O)(=O)c2cc(N3CCN(C(=O)C4CCCC4)CC3)c3cnn(-c4nnc(C(F)F)s4)c3c2)COC1` [Example 76, 4-(4-(cyclopentanecarbonyl)piperazin-1-yl)-1-(5-(difluoromethyl)-1,3,4-thiadiazol-2-yl)-N-(3-methyloxetan-3-yl)-1H-indazole-6-sulfonamide] reads < 50 nM; that for `CN(CC(F)F)C(=O)N1CCN(c2cc(S(=O)(=O)NC3(CF)COC3)cc3c2cnn3-c2nnc(C(F)F)s2)CC1` [Example 77, N-(2,2-difluoroethyl)-4-(1-(5-(difluoromethyl)-1,3,4-thiadiazol-2-yl)-6-(N-(3-(fluoromethyl)oxetan-3-yl)sulfamoyl)-1H-indazol-4-yl)-N-methylpiperazine-1-carboxamide], < 50 nM. Still for that read-out and setting: the figure for `C=Cc1nnc(-n2ncc3c(N4CCN(C(=O)C(C)C)CC4)cc(S(=O)(=O)NC4(C)COC4)cc32)s1` [Example 80, 4-(4-isobutyrylpiperazin-1-yl)-N-(3-methyloxetan-3-yl)-1-(5-vinyl-1,3,4-thiadiazol-2-yl)-1H-indazole-6-sulfonamide] is < 50 nM; for `CC(C)C(=O)N1CCN(c2cc(S(=O)(=O)NC3(C)COC3)cc3c2cnn3-c2nnc(Br)s2)CC1` [Example 81, 1-(5-bromo-1,3,4-thiadiazol-2-yl)-4-(4-isobutyrylpiperazin-1-yl)-N-(3-methyloxetan-3-yl)-1H-indazole-6-sulfonamide] it is < 50 nM.
